According to patent US7585850B2 (Adenobio N.V., priority 2005, dated 2009):

Legend:
normotensive Wistar rats [1] = assay: Effect of oral and IV 330A1 on blood pressure of normotensive Wistar rats; assay type: in vivo, rat
Description: (§1) The experiment was performed in 10 male Wistar rats (340 to 410 g; 5 in the treated group and 5 in the control group). Animals were maintained for two weeks of adaptation in humidity and temperature controlled room and were fed a standard diet (U.A.R, Villemoisson, France). Each animal, (control or treated) was anaesthetized with sodium pentobarbital (6%, 0.9 ml/Kg body weight). The left carotid artery was cannulated with a PE50 polyethylene catheter connected to a pressure transducer (MacLabs, ADInstruments, Hastings, UK). Blood pressure was monitored continuously and recorded. Adb011 was administered orally by gavage at the dose of 50 mg/kg (in Arabic syrup 5%).
(§2) The experiment is similar to example 3.
• 330A1-I (n=4): receiving by gavage the product (50 mg/kg in suspension with Arabic syrup 30 mg/ml) • Control-(n=4)I: receiving by gavage Arabic syrup 30 mg/ml alone • 330A1-II: receiving the product IV (10 mg/kg in suspension with distilled water 30 mg/ml) • Control-II (n=4): receiving IV distilled water

normotensive Wistar rats [2] = assay: Effect of oral administration of Adb011 on blood pressure of normotensive Wistar rats; assay type: in vivo, rat
Description: as §1
Results are reported as mean±SEM of n experiments. Multiple measurement analysis was performed using ANOVA, followed by Bonferroni-Dunn test. Statistical significance was accepted for p values less than 0.05.
Blood pressure began to decrease after 30 minutes of Adb-011 administration. It reached a significant maximal decrease of −13.9 mmHg between 70 and 100 min. (with respect to vehicle values, p<0.05 ANOVA multiple measurement analysis followed by a Bonferroni-Dunn test) and returned to normal after 110-120 minutes.

hypoxic rats = assay: Effect of oral Adb011 on chronic pulmonary hypertension caused by hypoxia in rats; assay type: in vivo, rat
Description: Animals were divided in three groups: • Adb-011 chronic treatment (n=5): receiving by gavage Adb-011 (50 mg/kg in suspension with Arabic syrup, 20 mg/ml) twice a day (morning and evening) for 14 days. • Control (n=6): receiving by gavage vehicle (suspension of Arabic syrup 20 mg/kg). • Adb-011 acute treatment (n=6): receiving by gavage vehicle for 14 days and orally treated with a single dose of Adb-011 on the last day (day of surgery). Rats were placed in a chamber where air was circulated at a pressure of 380 Torr, which corresponds to an altitude of 5500 meters. The chamber was open twice a day for ˜30 minutes to treat animals and to replace food and water. On the day of surgery the animals were removed from the chamber and anesthetized with pentobarbital sodium (60 mg/kg ip). A polyethylene catheter (PE-50) was placed in the aortic arch via the left carotid artery. An introducer was advanced in the right ventricle via the right jugular vein. Adequate placement of both catheters was established by the pressure waveform. Both catheters were connected to a pressure transducer (Biopac MP30, BIOPAC Systems, Inc.). The time-lag between last dose of Adb-011 (in group 1) and blood pressure measurement was 14 hours.

rats = assay: Effects of Adb011 by the IV route on systemic arterial pressure in rats; assay type: in vivo, rat; conditions: 10 mg/kg IV bolus
Description: as §1, §2
• Adb-011 (n=4): receiving IV a bolus of Adb-011 (10 mg/kg in suspension with distilled water 30 mg/ml) • Control (n=3): receiving IV (distilled water)
In the treated group, blood pressure began to decrease after 15 min of the Adb011 administration and reached a significant maximal decrease of 48 mmHg at […].

normotensive Wistar rats [3] = assay: Effect of oral Adb111 (AMP complex) on blood pressure of normotensive Wistar rats and comparison with AMP; assay type: in vivo, rat
Description: as §1, with “Adb011 was administered orally by gavage at the dose of 50 mg/kg (in Arabic syrup 5%).” left out
as §2

[4] = in vivo; cited from earlier work
[5] = in vivo; cited from earlier work; remark: listed apart in the source
[6] = 50 mg/kg p.o. twice a day for 14 days, chronic hypoxia
[7] = HxC + A 15 min: single oral dose on day of surgery
[8] = HxC + A 60 min: single oral dose on day of surgery, 60 min
[9] = oral administration, conclusion over doses

CC(=O)Nc1ccc(C(=O)O)cc1.CC(O)CN(C)C [330A1]
effect on mean arterial blood pressure (normotensive Wistar rats [1]; 10 mg/kg IV): minor effect | effect on mean arterial blood pressure (normotensive Wistar rats [1]; 50 mg/kg by gavage): minor effect

CC(=O)Nc1ccc(C(=O)O)cc1.CC(=O)Nc1ccc(C(=O)O)cc1.CC(=O)Nc1ccc(C(=O)O)cc1.CC(O)CN(C)C.CC(O)CN(C)C.CC(O)CN(C)C.Nc1ncnc2c1ncn2[C@@H]1O[C@H](CO)[C@@H](O)[C@H]1O [Adb011]
time after which blood pressure returned to normal (normotensive Wistar rats [2]; 50 mg/kg p.o.): 110 to 120 min | time after administration at which blood pressure began to decrease (normotensive Wistar rats [2]; 50 mg/kg p.o. by gavage, anaesthetized rats): 30 min | maximal decrease of blood pressure (normotensive Wistar rats [2]; 50 mg/kg p.o., with respect to vehicle values, p<0.05): −13.9 mmHg | change of right ventricular hypertrophy (hypoxic rats; [6]): -75 mg | decrease of pulmonary hypertension (hypoxic rats; [6]): 21.5 mmHg | effect on systemic pressure (hypoxic rats; [6]): no effect | RVp (right ventricular pressure) (hypoxic rats; HxA: chronic treatment 50 mg/kg p.o. twice a day 14 days, measured 14 h after last dose): 53.30 ± 461 mmHg | (LV + S)w (left ventricular + septum weight) (hypoxic rats; HxA: chronic treatment 14 days): 729 ± 56 | C(a − v)O2 (arterial − venous O2 difference) (hypoxic rats; HxA: chronic treatment 14 days): 8.0 ± 0.4 mL O2/dL blood | CaO2 (arterial O2 content) (hypoxic rats; HxA: chronic treatment 14 days): 29.2 ± 0.9 mL O2/dL of blood | Cardiac output (hypoxic rats; HxA: chronic treatment 14 days): 162 ± 8 mL/min/kg | CvO2 (venous O2 content) (hypoxic rats; HxA: chronic treatment 14 days): 21.2 ± 1.0 mL O2/dL of blood | HR (heart rate) (hypoxic rats; HxA: chronic treatment 14 days): 364 ± 15 beat/min | MABP (mean arterial blood pressure) (hypoxic rats; HxA: chronic treatment 14 days): 113 ± 2 mmHg | RVw (right ventricular weight) (hypoxic rats; HxA: chronic treatment 14 days): 362 ± 10 mg | SV (stroke volume) (hypoxic rats; HxA: chronic treatment 14 days): 0.45 ± 0.02 mL/kg | SVR (systemic vascular resistance) (hypoxic rats; HxA: chronic treatment 14 days): 0.70 ± 0.03 | SaO2 (arterial oxygen saturation) (hypoxic rats; HxA: chronic treatment 14 days): 92 ± 1 % | VO2 (oxygen consumption) (hypoxic rats; HxA: chronic treatment 14 days): 12.81 ± 0.29 mL/min/kg | (LV + S)w (left ventricular + septum weight) (hypoxic rats; [7]): 675 ± 21 | C(a − v)O2 (arterial − venous O2 difference) (hypoxic rats; [7]): 8.3 ± 0.5 mL O2/dL blood | CaO2 (arterial O2 content) (hypoxic rats; [7]): 27.3 ± 1.4 mL O2/dL of blood | Cardiac output (hypoxic rats; [7]): 164 ± 11 mL/min/kg | CvO2 (venous O2 content) (hypoxic rats; [7]): 19.0 ± 1.5 mL O2/dL of blood | HR (heart rate) (hypoxic rats; [7]): 352 ± 12 beat/min | MABP (mean arterial blood pressure) (hypoxic rats; [7]): 107 ± 5 mmHg | RVw (right ventricular weight) (hypoxic rats; [7]): 436 ± 21 mg | SV (stroke volume) (hypoxic rats; [7]): 0.47 ± 0.03 mL/kg | SVR (systemic vascular resistance) (hypoxic rats; [7]): 0.68 ± 0.06 | SaO2 (arterial oxygen saturation) (hypoxic rats; [7]): 82 ± 4% | VO2 (oxygen consumption) (hypoxic rats; [7]): 13.38 ± 0.61 mL/min/kg | RVp (right ventricular pressure) (hypoxic rats; HxC + A 15 min: single oral dose on day of surgery, 15 min): 75.17 ± 0.95 mmHg | HR (heart rate) (hypoxic rats; [8]): 329 ± 4 beat/min | MABP (mean arterial blood pressure) (hypoxic rats; [8]): 92 ± 5 mmHg | RVp (right ventricular pressure) (hypoxic rats; [8]): 52.83 ± 3.83 mmHg | reduction of pulmonary artery pressure (hypoxic rats; acute single oral dose, rats with fixed pulmonary hypertension): −22 mmHg | maximal decrease of blood pressure (rats): 48 mmHg | mean arterial blood pressure two hours after injection (rats): still very low two hours after injection | time after administration at which blood pressure began to decrease (rats): 15 min | time of maximal decrease of blood pressure (rats): 15 min

CC(=O)Nc1ccc(C(=O)O)cc1.CC(=O)Nc1ccc(C(=O)O)cc1.CC(=O)Nc1ccc(C(=O)O)cc1.CC(O)CN(C)C.CC(O)CN(C)C.CC(O)CN(C)C.Nc1ncnc2c1ncn2[C@@H]1O[C@H](COP(=O)(O)O)[C@@H](O)[C@H]1O [Adb111]
time after administration at which blood pressure began to decrease (normotensive Wistar rats [3]; 100 mg/kg by gavage): 45 min | time after which blood pressure returned to normal values (normotensive Wistar rats [3]; 100 mg/kg by gavage): 180 min | time after administration at which blood pressure began to decrease (normotensive Wistar rats [3]; 300 mg/kg by gavage): 45 min | time after which blood pressure returned to normal values (normotensive Wistar rats [3]; 300 mg/kg by gavage): 180 min | time after oral administration at which blood pressure lowering began (normotensive Wistar rats [3]; [9]): 45 min | time for which blood pressure was lowered (normotensive Wistar rats [3]; [9]): up to 165 min | bioavailability and efficacy compared with natural AMP (normotensive Wistar rats [3]; oral, comparable doses): better bioavailabity and efficacy over natural AMP

Nc1ncnc2c1ncn2[C@@H]1O[C@H](CO)[C@@H](O)[C@H]1O [adenosine]
plasma half-life [4]: less than 5 seconds

Nc1ncnc2c1ncn2[C@@H]1O[C@H](COP(=O)(O)O)[C@@H](O)[C@H]1O [AMP, adenosine monophosphate, reference compound]
time after administration at which blood pressure began to decrease (normotensive Wistar rats [3]; 100 mg/kg by gavage): 45 min | time after which blood pressure returned to normal values (normotensive Wistar rats [3]; 100 mg/kg by gavage): 120 min | time after administration at which blood pressure began to decrease (normotensive Wistar rats [3]; 300 mg/kg by gavage): 45 min | time after which blood pressure returned to normal values (normotensive Wistar rats [3]; 300 mg/kg by gavage): 120 min | time for which blood pressure was lowered (normotensive Wistar rats [3]; [9]): 60 min | gastrointestinal bioavailability [5]: poor
